Entries after “also recorded” stand apart in the source; their conditions may differ.

We go through 3 compounds from patent publication US5508456A, “9-cis tritium-labeled retinoids and intermediates, methods for their synthesis and methods for their use in discovering retinoid X receptor ligands” (Ligand Pharmaceuticals Incorporated, priority 1994, dated 1996).

Assay [1] concerns RARs and RXRs. Briefly: Binding to RARs and RXRs (summary over all six receptors). As to conditions: RARα,β,γ and RXRα,β,γ.
The subject of assay [2] is RARs and RXRs. As to conditions: Heyman et al., Cell, 68:397 (1992); cited from earlier work.
The subject of assay [3] is RXRs. Kind of assay: Binding to RXRs (summary).
In assay [4] the test system is RARs and RXRs. Briefly: Binding to and modulating gene expression via RARs and RXRs. As to conditions: labeled retinoid.

As for `CC1=C(/C=C/C(C)=C\C=C\C(C)=C\C(=O)O)C(C)(C)CCC1` [9-cis RA, (2E,4E,6Z,8E)-3.7-Dimethyl-9-(2,6,6-trimethylcyclohexen-1-yl)nona-2.4.6.8-tetraenoic acid], the “binding to / activity on RARs and RXRs, in words” value (shortened to “binding to / activity”) in assay [1] is “active on all six known retinoid receptors”; in assay [1] (listed as 9-cis retinoic acid), “effectively binds to all six receptors; also recorded: binds to the RARs and RXRs with high affinity in a saturable and specific manner”. The “binding to and modulating gene expression via the RARs and RXRs, in words” value in assay [2] was “capable of binding to and modulating gene expression via the RARs and RXRs”.
With `CC1=C(/C=C/C(C)=C/C=C/C(C)=C/C(=O)O)C(C)(C)CCC1` [ATRA, all-trans retinoic acid], in assay [3], the “binding to RXRs, in words” value is reported as “does not bind to RXRs”. The “binding to / activity” value was “only binds to the RARs” in assay [1] and “only active on RARα,β,γ” in assay [1] (listed as all-trans retinoic acid (ATRA)).
As for `[3H]C(/C=C(C)\C=C\C1=C(C)CCCC1(C)C)=C\C(C)=C\C(=O)O` [monotritium-labeled 9-cis RA, (2E,4E,6Z,8E)-5-[^3 H]-3,7-Dimethyl-9-(2,6,6-trimethylcyclohexen-1-yl)nona-2,4,6,8-tetraenoic acid], the “binding to / activity” value in assay [1] is “binds to all the known RARs and RXRs with approximately equal nanomolar affinities”. Further, in assay [4], the “binding with, and modulating gene expression from, both RARs and RXRs, in words” value is “capable of binding with, and modulating gene expression from, both RARs and RXRs”.
